Assay results taken from patent publication US10487072B2, “Substituted imidazoles as melanocortin receptor agonists” (MITSUBISHI TANABE PHARMA CORPORATION, priority 2015, dated 2019).
Where a name gives a salt, the structure may show the parent alone.

Assays:
Human MC1R = biological target: T1, Human MC1R (Homo sapiens, UniProt Q01726); test: Human MC1R agonistic activity measurement (cAMP assay) using human melanoma cell line HBL; assay type: cell-based; details: HBL cells; for Emax: 0.5 h, Intrinsic Activity, vehicle cAMP = 0%, αMSH at 10^-6 M = 100%, read-out: Human MC1R IA %; for EC50: intracellular cAMP, 37° C. for 30 minutes
T1 construct: endogenous in cells; host or cells: human melanoma cell line HBL
Method: (1) Method for Culturing Cells
Human MC1R agonistic activity measurement was carried out by using human melanoma cell line HBL. Culture of HBL: F-10 Nutrient Mixture comprising 10% FCS and Penicillin-streptomycin was used in the culture.
(2) cAMP Assay and Data Calculation
Each compound solution having each concentration was mixed with a cAMP assay buffer (HBSS (Hank's Balanced Salt Solution) comprising 10 mM HEPES and 0.1% BSA), and dispensed into a 96 well plate. HBL was suspended into a cAMP assay buffer comprising 0.5 mM IBMX so that the concentration became 5×10^4/mL, and the resulting suspension was dispensed into the above 96 well plate, then mixed, and left to stand at 37° C. for 30 minutes, and then the intracellular cAMP concentration was measured by a fluorescence method using Envision (ex. 320 nm, em. 590 nm and 665 nm). Each ratio value (665 nm measurement value/590 nm measurement value×10,000) was calculated from the resulting data, and the quantitative value of each cAMP concentration was calculated by using Prism 5.02, and induction % value (% of each sample when the average concentration value of cAMP of vehicle was set to be 0% and the average concentration value of cAMP of αMSH at 10^−6 M was set to be 100%) was calculated, and EC50 value and Intrinsic Activity (IA) % value were calculated.

human MC4R = human MC4R (Homo sapiens, UniProt P32245); test: human MC4R agonistic activity; assay type: cell-based
human MC4R, sequence (P32245 whole entry): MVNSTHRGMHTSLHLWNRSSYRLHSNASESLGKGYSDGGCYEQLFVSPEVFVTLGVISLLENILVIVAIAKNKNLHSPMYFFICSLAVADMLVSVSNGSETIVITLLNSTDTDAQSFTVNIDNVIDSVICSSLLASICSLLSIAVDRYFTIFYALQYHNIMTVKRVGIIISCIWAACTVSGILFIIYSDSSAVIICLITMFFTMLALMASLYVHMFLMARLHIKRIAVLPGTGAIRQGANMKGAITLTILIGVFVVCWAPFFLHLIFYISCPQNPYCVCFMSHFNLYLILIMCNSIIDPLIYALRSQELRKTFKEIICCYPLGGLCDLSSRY

T1 sequence (Q01726 whole entry): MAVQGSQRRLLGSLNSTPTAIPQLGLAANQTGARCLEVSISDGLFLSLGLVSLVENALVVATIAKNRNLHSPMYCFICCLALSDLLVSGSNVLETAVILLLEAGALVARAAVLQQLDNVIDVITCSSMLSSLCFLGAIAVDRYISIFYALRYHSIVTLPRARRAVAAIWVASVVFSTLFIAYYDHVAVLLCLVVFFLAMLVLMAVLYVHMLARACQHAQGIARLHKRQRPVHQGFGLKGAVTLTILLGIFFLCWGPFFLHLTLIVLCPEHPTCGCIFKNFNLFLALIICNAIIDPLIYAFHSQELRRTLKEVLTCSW

Emax (Human MC1R) [%]	EC50 (Human MC1R) [nM]	EC50 (human MC4R) [nM]	Compound
96	2	–	CC(C)c1ccc(Cn2ccnc2NC(=O)[C@]2(F)CN(C(C)(C)C)C[C@H]2c2ccc(F)cc2)c(N2CCC(C(=O)O)CC2)c1 [Example 49, 1-[2-{[2-({[(3R,4R)-1-tert-butyl-3-fluoro-4-(4-fluorophenyl)pyrrolidin-3-yl]carbonyl}amino)-1H-imidazol-1-yl]methyl}-5-(propan-2-yl)phenyl]piperidine-4-carboxylic acid]
118	1.6	–	COc1ccc([C@@H]2CN(C(C)(C)C)C[C@@]2(F)C(=O)Nc2nccn2Cc2ccc(C(F)(F)F)cc2N2CCC(C(=O)O)CC2)cc1 [Example 52, 1-[2-{[2-({[(3R,4R)-1-tert-butyl-3-fluoro-4-(4-methoxyphenyl)pyrrolidin-3-yl]carbonyl}amino)-1H-imidazol-1-yl]methyl}-5-(trifluoromethyl)phenyl]piperidine-4-carboxylic acid]
109	2.8	–	COc1ccc([C@@H]2CN(C(C)(C)C)C[C@@]2(F)C(=O)Nc2nccn2Cc2ccc(C(C)C)cc2N2CCC(C(=O)O)CC2)cc1 [Example 54, 1-[2-{[2-({[(3R,4R)-1-tert-butyl-3-fluoro-4-(4-methoxyphenyl)pyrrolidin-3-yl]carbonyl}amino)-1H-imidazol-1-yl]methyl}-5-(propan-2-yl)phenyl]piperidine-4-carboxylic acid]
79	2.3	–	Cc1ccc(Cn2ccnc2NC(=O)[C@@H]2CN(C3(C)CCN(CCO)CC3)C[C@H]2c2ccc(F)cc2F)c(N2CCOCC2)c1 [Example 64, (3S,4R)-4-(2,4-difluorophenyl)-1-[1-(2-hydroxyethyl)-4-methylpiperidin-4-yl]-N-{1-[4-methyl-2-(morpholin-4-yl)benzyl]-1H-imidazol-2-yl}pyrrolidine-3-carboxamide]
66	20	–	Cc1ccc(Cn2ccnc2NC(=O)[C@@H]2CN(c3ccnc(C)c3)C[C@H]2c2ccc(F)cc2F)c(N2CCOCC2)c1 [Example 72]
76	68	–	CC(C)(C)N1C[C@@H](c2ccc(F)cn2)[C@](F)(C(=O)Nc2nccn2Cc2ccc(C(F)(F)F)nc2N2CCOCC2)C1 [Example 80]
98	16	–	Cc1ccc(Cn2ccnc2NC(=O)[C@@H]2CN(C(C)(C)C)C[C@H]2c2ccc(F)cc2F)c(N2CCC(C(=O)NS(=O)(=O)N(C)C)CC2)c1 [Example 85, 1-(2-{[2-({[(3S,4R)-1-tert-butyl-4-(2,4-difluorophenyl)pyrrolidin-3-yl]carbonyl}amino)-1H-imidazol-1-yl]methyl}-5-methylphenyl)-N-(dimethylsulfamoyl)piperidine-4-carboxamide trihydrochloride]

More lines, now with the values behind:

Compound	Emax (Human MC1R) [%]	EC50 (Human MC1R) [nM]	EC50 (human MC4R) [nM]
COC(C)(C)CCCN1C[C@@H](c2ccc(F)cc2F)[C@](F)(C(=O)Nc2nccn2Cc2ccc(C)cc2N2CCC(C(=O)O)CC2)C1 [Example 13, 1-(2-{[2-({[(3R,4R)-4-(2,4-difluorophenyl)-3-fluoro-1-(4-methoxy-4-methylpentyl)pyrrolidin-3-yl]carbonyl}amino)-1H-imidazol-1-yl]methyl}-5-methylphenyl)piperidine-4-carboxylic acid]	89	22	–
O=C(O)C1CCN(c2cc(C(F)(F)F)ccc2Cn2ccnc2NC(=O)[C@]2(F)CN(C3CCCC3)C[C@H]2c2ccc(F)cc2F)CC1 [Example 16, 1-[2-{[2-({[(3R,4R)-1-cyclopentyl-4-(2,4-difluorophenyl)-3-fluoropyrrolidin-3-yl]carbonyl}amino)-1H-imidazol-1-yl]methyl}-5-(trifluoromethyl)phenyl]piperidin-4-carboxylic acid]	88	6.7	–
COC(C)(C)CCCN1C[C@@H](c2ccc(F)cc2F)[C@](F)(C(=O)Nc2nccn2Cc2ccc(C(F)(F)F)cc2N2CCC(C(=O)O)CC2)C1 [Example 19, 1-[2-{[2-({[(3R,4R)-4-(2,4-difluorophenyl)-3-fluoro-1-(4-methoxy-4-methylpentyl)pyrrolidin-3-yl]carbonyl}amino)-1H-imidazol-1-yl]methyl}-5-(trifluoromethyl)phenyl]piperidine-4-carboxylic acid]	83	3.5	–
O=C(O)C1CCN(c2cc(C(F)(F)F)ccc2Cn2ccnc2NC(=O)[C@]2(F)CN(CCCS(=O)(=O)N3CCCC3)C[C@H]2c2ccc(F)cc2F)CC1 [Example 26, 1-[2-({2-[({(3R,4R)-4-(2,4-difluorophenyl)-3-fluoro-1-[3-(pyrrolidin-1-ylsulfonyl)propyl]pyrrolidin-3-yl}carbonyl)amino]-1H-imidazol-1-yl}methyl)-5-(trifluoromethyl)phenyl]piperidine-4-carboxylic acid]	97	7.6	–
CN(C)C(=O)CCCN1CC(c2ccc(F)cc2F)C(C(=O)Nc2nccn2Cc2ccc(C(F)(F)F)cc2N2CCC(C(=O)O)CC2)(C(F)(F)F)C1 (stereo not drawn) [Example 28]	91	25	–
Cc1ccc(Cn2ccnc2NC(=O)[C@@H]2CN(CC[C@H]3Cc4ccccc4CN3)C[C@H]2c2ccc(F)cc2F)c(N2CCC(C(=O)O)CC2)c1 [Example 32, 1-(2-{[2-({[(3S,4R)-4-(2,4-difluorophenyl)-1-{2-[(3R)-1,2,3,4-tetrahydroisoquinolin-3-yl]ethyl}pyrrolidin-3-yl]carbonyl}amino)-1H-imidazol-1-yl]methyl}-5-methylphenyl)piperidine-4-carboxylic acid tetrahydrochloride]	–	2.8	557
CC(C)(C)N1C[C@@H](c2ccc(F)cc2)[C@](F)(C(=O)Nc2nccn2Cc2ccc(C(F)(F)F)cc2N2CCC(C(=O)O)CC2)C1 [Example 43, 1-[2-{[2-({[(3R,4R)-1-tert-butyl-3-fluoro-4-(4-fluorophenyl)pyrrolidin-3-yl]carbonyl}amino)-1H-imidazol-1-yl]methyl}-5-(trifluoromethyl)phenyl]piperidine-4-carboxylic acid]	108	6	–
CC(C)(C)N1C[C@@H](C(=O)Nc2nccn2CC2(N3CCOCC3)CCCCC2)[C@H](c2ccc(F)cc2F)C1 [Example 70]	58	83	–
